In paper PMC3770654, “Gastric Antimicrobial Peptides Fail to Eradicate Helicobacter pylori Infection Due to Selective Induction and Resistance” (PLoS ONE, 2013):

What was measured:
Format in all cases: cell-based
P. aeruginosa = assay: Killing of P. aeruginosa by elafin (data not shown)
E. coli ATCC 25922 = assay: Flow cytometric viability assay with membrane potential sensitive dye DiBAC4(3)
Experimental: (§1) The clinical isolate H. pylori KaE1 and the reference strains H. pylori DSM 9691, DSM 10242 and DSM 21031 were tested for susceptibility towards defensins, LL37 and elafin (amino acid sequences Table S1). The strain H. pylori DSM 10242 is positive for the virulence factors VacA and CagA. As control strain for antimicrobial activity served the sensitive E. coli ATCC 25922.
(§2) Bacterial viability after incubation with antimicrobial peptides or biopsy extracts was analyzed with the membrane potential sensitive dye DiBAC4(3) (bis-(1,3-dibutylbarbituric acid) trimethine oxonol) (Invitrogen, Carlsbad, CA, USA) as described previously. Briefly, 1.5x10^6 mid-logarithmic-phase bacteria/ml of H. pylori or E. coli in Schaedler Broth 1:6 were incubated with 20 µg/ml HBD1-4 (Peptide Institute, Osaka, Japan), elafin (Proteo Biotech, Kiel, Germany for FACS analysis and RDA and elafin from Peptide Institute, Osaka for CFU determination), with LL37 (Innovagen, Lund, Sweden) or with 10 µg total protein of antrum biopsy extracts at 37°C. After 90 minutes 1 µg/ml DiBAC4(3) was added to the suspensions and further incubated for 10 minutes. Then, the suspensions were centrifuged with 4500 x g for 10 minutes, pellets resuspended in 300 µl PBS and bacterial fluorescence was analyzed by a FACSCalibur^TM (BD, Sparks, USA), using Cell Quest software (BD, Sparks, USA). In each sample 10000 bacterial events were analyzed for green fluorescence and the antimicrobial activity was determined as percentage of depolarized, fluorescent bacteria. Inhibition of bacterial growth was tested by plating aliquots on Columbia blood agar and incubating at 37 C° for 2 days in a microaerophilic atmosphere with CampyGen (Oxoid, Hampshire, UK). Then colony forming units (CFU) were counted.

[1] = test system: H. pylori KaE1, DSM 9691, DSM 10242 and DSM 21031; assay: Radial diffusion assay, four H. pylori strains; conditions: all four Helicobacter strains; 20 µg peptide per well, 3 days, 37 °C, microaerophilic
Experimental: Additionally to determine inhibition of bacterial growth we performed radial diffusion assays with a modified protocol of the procedure from Robert Lehrer et al.. Briefly, H. pylori was grown on Columbia blood agar (BD, Sparks, USA), suspended in Brain Heart Infusion diluted 1:5 with aqua dest. and plated on an agar containing 20% brain heart infusion with 5% fetal calf serum. Wells with 3 mm diameter were punched into the agar and peptides were applied equivalent to the flow cytometric assay in a concentration of 20 µg per well. The agar plates were incubated for 3 days at 37 °C in a microaerophilic atmosphere with CampyGen.

H. pylori KaE = assay: Plating on Columbia blood agar with CFU counting; conditions: peptide 20 µg/ml, means of two independent experiments, control 1.42 x 10^6
Experimental: (§3) H. pylori strains were cultured on Columbia blood agar at 37 C° for 2 days in a microaerophilic atmosphere with CampyGen (Oxoid, Hampshire, UK). Subsequently the bacteria were suspended in Schaedler Broth (BD, Sparks, USA) diluted 1:6 with aqua dest. for incubation with antimicrobial peptides.
as §2

H. pylori DSM 21031 = assay: Plating on Columbia blood agar with CFU counting; conditions: peptide 20 µg/ml, means of two independent experiments, control 7.45 x 10^5
Experimental: as §3, §2

H. pylori DSM 10242 = assay: Plating on Columbia blood agar with CFU counting; conditions: peptide 20 µg/ml, means of two independent experiments, control 6.10 x 10^5
Experimental: as §3, §2

H. pylori DMS 9691 = assay: Plating on Columbia blood agar with CFU counting; conditions: peptide 20 µg/ml, means of two independent experiments, control 8.85 x 10^5
Experimental: as §3, §2

[2] = test system: H. pylori KaE1, DSM 9691, DSM 10242 and DSM 21031; assay: Flow cytometric viability assay with DiBAC4(3), four H. pylori strains
Experimental: as §1, §3, §2

**Q.** With “Ala - Gln - Glu - Pro - Val - Lys - Gly - Pro - Val - Ser - Thr - Lys - Pro - Gly - Ser - Cys - Pro - Ile - Ile - Leu - Ile - Arg - Cys - Ala - Met - Leu - Asn - Pro - Pro - Asn - Arg - Cys - Leu - Lys - Asp - Thr - Asp - Cys - Pro - Gly - Ile - Lys - Lys - Cys - Cys - Glu - Gly - Ser - Cys - Gly - Met - Ala - Cys - Phe - Val - Pro - Gln (disulfide) [Elafin, epithelial antiprotease elafin (PI3), cationic, 4 disulphide bridges; Proteo Biotech or Peptide Institute]” as the substance, how does the “killing of P. aeruginosa” value (P. aeruginosa) read?
**A.** The value was “limited killing”.

**Q.** What about the depolarized bacteria (E. coli ATCC 25922; 20 µg/ml peptide, 1.5x10^6 bacteria/ml in Schaedler Broth 1:6, 37°C, 90 minutes, then DiBAC4(3) 10 minutes, 10000 events) of the same substance?
**A.** The depolarized bacteria was 4%.

**Q.** And the bactericidal effect (E. coli ATCC 25922; E. coli, elafin peptides from different companies)?
**A.** The bactericidal effect was “no bactericidal effect”.

**Q.** What about the “zones of inhibition in radial diffusion assay” value [1] of the same substance?
**A.** Its value is “no zones of inhibition”.

**Q.** And the Colony forming units (H. pylori KaE)?
**A.** The Colony forming units was 1.29 x 10^6 CFU/ml.

**Q.** And the Colony forming units (H. pylori DSM 21031)?
**A.** The Colony forming units was 6.82 x 10^5 CFU/ml.

**Q.** And the Colony forming units (H. pylori DSM 10242)?
**A.** The Colony forming units was 4.85 x 10^5 CFU/ml.

**Q.** And the Colony forming units (H. pylori DMS 9691)?
**A.** Its Colony forming units is 9.59 x 10^5 CFU/ml.

**Q.** What about the bactericidal effect ([2]; H. pylori, elafin peptides from different companies) of the same substance?
**A.** The bactericidal effect was “no bactericidal effect”.

**Q.** And the depolarized bacteria ([2]; all 4 H. pylori strains, 20 µg/ml peptide, Schaedler Broth 1:6, 37°C, 90 minutes, DiBAC4(3))?
**A.** The depolarized bacteria was “less than 5%”.
